This note sets out measurements from patent US20210137934A1, “METHODS OF IDENTIFYING MYC-DRIVEN AND LIPOGENESIS-DEPENDENT NEOPLASMS AND METHODS OF TREATING THE SAME” (The Board of Trustees of the Leland Stanford Junior …, priority 2017, published 2021).

“Also recorded” adds a separate entry of the source.

Test [1] deals with human lymphoma B-cell line (P493-6). The test can be described thus: In vitro cell proliferation by total live cell counts, P493-6. The class given is cell-based. The following applies: P493-6 cells, various concentrations. As to the method: (§1) Cell culture conditions. P493-6 cells are cultured in Gibco's RPM11640 media under normal culture conditions of 20% O2, 4% CO2, and 37° C. P493 cells are suspension cells, and they are kept at 0.2-1.8 million cells/ml density to avoid confluency. In order to turn off Myc, 1 μg/ml of tetracycline is applied to the media for 48 hours to completely suppress Myc. Mouse-derived renal carcinoma line E28 and human RCC 786-O cell line are cultured for in vitro experiments under normal culture conditions of 20% O2, 4% CO2, and 37° C. 786-O and E28 cells are maintained in Dulbecco's Modified Eagle Medium (DMEM), which is supplemented with 10% fetal bovine serum (FBS), 1% L-glutamine, 1% sodium pyruvate, 1% nonessential amino acids, and Antibiotic-Antimycotic. Trypsin-EDTA is used to passage E28 and 786-O cells. All cell culture reagents are purchased from Gibco® (Thermo Fisher Scientific Inc.).
(§2) Small molecule inhibitors. The small molecule, TOFA (Sigma), diluted in dimethyl sulfoxide (DMSO) to the desired concentrations is added to cell culture medium to achieve inhibition of ACACA. TOFA is an allosteric inhibitor of ACACA, the enzyme which catalyzes the rate-limiting step of fatty acid synthesis. Various concentrations of TOFA are administered to cells in culture over time to assess dose-response suppression of proliferation. For in vivo treatment of mice, 25 mg/kg TOFA is administered daily by intraperitoneal injections (IP). The stock TOFA is diluted in DMSO to 10 mg/ml, such that the final injected volume is around 50 μl since the mice weigh about 20 g.
(§3) Cell counting. A volume of cells is removed from culture medium and mixed with an equal volume of 0.4% Trypan blue stain. Then 10 μl hemocytometer for cell counting. Viable cell counts are used as a measure of cell proliferation.

The test system of the next test is RCC (E28) cells. The test can be described thus: In vitro cell proliferation by total live cell counts, E28. It is filed as cell-based, mouse. The following applies: for cell growth / proliferation (total live cell counts): various concentrations. How it is done:
as §1, §2, §3

For test [2], the system named is human RCC tumor derived cell line, 786-0. As to the kind of experiment: Human RCC 786-O cell line treated in vitro. It is filed as cell-based. The settings on record: 786-0 cell line treated in vitro. How it is done: as §1
(§4) Small molecule inhibitors. The small molecule, TOFA (Sigma), diluted in dimethyl sulfoxide (DMSO) to the desired concentrations is added to cell culture medium to achieve inhibition of ACACA. TOFA is an allosteric inhibitor of ACACA, the enzyme which catalyzes the rate-limiting step of fatty acid synthesis. Various concentrations of TOFA are administered to cells in culture over time to assess dose-response suppression of proliferation. […]

Test [3] deals with PGs and PIs. The test can be described thus: DESI-MSI lipid profile in transgenic MYC-induced RCC. It is filed as in vivo, mouse. As to the method:
as §2
(§5) Desorption Electrospray Ionization Mass Spectrometry Imaging (DESI-MSI). DESI-MSI is used for generating two-dimensional chemical maps of various tissues sections in order to assess the lipid profile of an organ. Tissue sections of 16 μm thick are imaged by this method using a lab-built DESI-MSI source coupled to an LTQ-Orbitrap XL mass spectrometer (Thermo Fisher Scientific, MA), and the mass spectra are acquired in negative ion mode using the Orbitrap as the mass analyzer at 60,000 resolving power. […] All tissues are histopathologically evaluated after imaging using standard hematoxylin and eosin (H&E) staining, to ensure a correct interpretation of lipid signals. […]

In test [4] the test system is PGs and PIs. The test can be described thus: DESI-MSI lipid profile in human RCC xenograft. It is filed as in vivo, mouse. How it is done:
as §2, §5

Test [5] deals with transgenic MYC-induced RCC. The test can be described thus: Transgenic MYC-induced RCC mouse model, tumor growth (kidney weight and size, histology). It is filed as in vivo. The settings on record: 25 mg/kg daily IP. As to the method: as §2
Test [6] relates to human RCC 786-O xenograft. As to the kind of experiment: Human RCC 786-O xenograft in NSG mice. The following applies: 25 mg/kg daily IP. The class given is in vivo, mouse. How it is done:
as §1, §4
For orientation: Xenograft models place foreign cells or tissue in a host animal.

A further test relates to HCC (EC4) cells. As to the kind of experiment: In vitro cell growth, EC4. The class given is cell-based, mouse. As to the method:
as §2, with “g. Cell counting. A volume of cells is removed from culture medium and mixed with an equal volume of 0.4% Trypan blue stain. Then 10 μl hemocytometer for cell counting. Viable cell counts are used as a measure of cell proliferation.” for “g.”

A further test concerns T-ALL (4188) cells. The test can be described thus: In vitro cell growth, 4188. It is filed as cell-based, mouse. The settings on record: 4188 T-ALL cells. How it is done: as §2, with “g. Cell counting. A volume of cells is removed from culture medium and mixed with an equal volume of 0.4% Trypan blue stain. Then 10 μl hemocytometer for cell counting. Viable cell counts are used as a measure of cell proliferation.” for “g.”

On to `CCCCCCCCCCCCCCOc1ccc(C(=O)O)o1` [TOFA, 5-(tetradecyloxy)-2-furancarboxylic acid], for which the “cell growth / proliferation (total live cell counts)” value is reported as “growth inhibited in vitro in a dose-dependent manner; also recorded: decreased in a dose-dependent manner” in test [1] and “growth inhibited in vitro in a dose-dependent manner; also recorded: similar” in the test on RCC (E28) cells. The “rescue of growth inhibition by addition of oleate” value in the test on RCC (E28) cells (oleate added) is “partially rescuable; also recorded: partially rescued”. Also, the “tumor cell response in vitro” value in test [2] is “exhibited tumor regression”. In addition, the “PGs and PIs by DESI-MSI during tumor initiation and regression” value in the test with PGs and PIs [3] was “suppressed; also recorded: block PGs and PIs”. Besides, the “PGs and PIs by DESI-MSI” value with PGs and PIs [4] is “block PGs and PIs”. Also, the “tumor progression / regression, treatment after tumor onset” value in test [5] (treatment at week 2 (15 day MYC on tumor), kidney weight and size, histology) is “regressed; also recorded: induced tumor regression; also recorded: significantly reduces kidney tumor progression”. Further, in test [5] (treatment from week 0 (day 0 MYC on)), the “tumor growth / tumorigenesis, treatment before tumor onset” value is “blocked; also recorded: prevented tumor growth; also recorded: completely prevents tumorigenesis”. Also, in test [6], the xenograft tumor growth result was “regresses; also recorded: exhibited tumor regression”.

`C/C=C/C/C=C/CCC(=O)[C@H]1O[C@H]1C(N)=O` [cerulenin, Cerulenin]: the entries for the “cell growth / proliferation (total live cell counts)” value (in [1]; in test [1] (listed as Cerulenin); in the test with RCC (E28) cells) were “growth inhibited in vitro in a dose-dependent manner”, “decreased in a dose-dependent manner” and “growth inhibited in vitro in a dose-dependent manner”, respectively. Besides, the cell growth result in the test with HCC (EC4) cells and in the test on T-ALL (4188) cells was “growth inhibited in vitro in a dose-dependent manner” in each case.
